One assay concerns the target T1, hα2A adrenergic receptor (Homo sapiens, UniProt P08913).
T1 sequence (P08913 1-465): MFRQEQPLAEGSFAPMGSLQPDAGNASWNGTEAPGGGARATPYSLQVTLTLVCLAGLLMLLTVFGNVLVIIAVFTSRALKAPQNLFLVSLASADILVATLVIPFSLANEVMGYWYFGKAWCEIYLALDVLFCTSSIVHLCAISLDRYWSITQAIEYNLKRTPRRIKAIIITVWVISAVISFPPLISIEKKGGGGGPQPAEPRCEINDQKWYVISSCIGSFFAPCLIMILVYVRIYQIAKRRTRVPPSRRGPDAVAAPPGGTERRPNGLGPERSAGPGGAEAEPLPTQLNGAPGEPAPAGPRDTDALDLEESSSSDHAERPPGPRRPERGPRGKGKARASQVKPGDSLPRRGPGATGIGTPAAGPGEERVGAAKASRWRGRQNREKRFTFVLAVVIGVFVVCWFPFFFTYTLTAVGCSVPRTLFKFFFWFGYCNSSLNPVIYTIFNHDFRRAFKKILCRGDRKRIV
The assay is described as follows: Radioligand binding, α2A adrenergic receptor ([3H]rauwolscine).

In a further assay the target is T2, h5-HT1A receptor (Homo sapiens, UniProt P08908).
T2 sequence (P08908 1-422): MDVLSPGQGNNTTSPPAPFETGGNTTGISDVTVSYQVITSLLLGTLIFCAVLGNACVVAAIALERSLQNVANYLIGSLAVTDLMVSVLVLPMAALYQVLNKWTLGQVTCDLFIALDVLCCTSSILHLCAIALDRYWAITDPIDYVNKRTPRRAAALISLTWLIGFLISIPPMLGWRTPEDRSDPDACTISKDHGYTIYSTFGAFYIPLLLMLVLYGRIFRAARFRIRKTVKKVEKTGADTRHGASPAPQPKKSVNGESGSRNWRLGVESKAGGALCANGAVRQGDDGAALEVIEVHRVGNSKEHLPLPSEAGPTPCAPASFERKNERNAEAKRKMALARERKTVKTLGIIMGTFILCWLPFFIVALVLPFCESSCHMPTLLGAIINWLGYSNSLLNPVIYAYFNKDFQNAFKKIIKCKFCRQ
The experiment in a line: Radioligand binding, 5-HT1A receptor ([3H]8-OH-DPAT).

In another assay the target is T3, human 5-HT2B receptor (Homo sapiens, UniProt P41595).
T3 construct: expressed in transfected cells; host or cells: HEK 293 cells
T3 sequence (P41595 whole entry): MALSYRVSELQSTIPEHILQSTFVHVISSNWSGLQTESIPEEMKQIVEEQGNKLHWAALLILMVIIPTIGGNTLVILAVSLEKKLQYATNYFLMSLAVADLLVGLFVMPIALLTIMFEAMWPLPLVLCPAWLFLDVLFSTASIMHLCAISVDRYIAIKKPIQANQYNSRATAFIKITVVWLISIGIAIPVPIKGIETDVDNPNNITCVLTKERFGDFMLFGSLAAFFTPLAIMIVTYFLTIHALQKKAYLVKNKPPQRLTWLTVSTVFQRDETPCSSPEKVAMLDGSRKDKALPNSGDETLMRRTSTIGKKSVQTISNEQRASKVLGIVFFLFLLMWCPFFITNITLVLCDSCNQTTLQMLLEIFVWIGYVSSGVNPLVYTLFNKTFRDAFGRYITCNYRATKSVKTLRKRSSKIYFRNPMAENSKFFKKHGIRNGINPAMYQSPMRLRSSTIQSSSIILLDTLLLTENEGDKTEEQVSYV
The assay is described as follows: Activation potency and efficacy at the 5-HT2B receptor (Fluo-4 calcium, HEK 293 cells). It is filed as cell-based. The following applies: for Emax: HEK293, relative to 5-HT (100%), read-out: h5-HT2B activation efficacy Emax ± SD. The protocol: The activation potency and efficacy at the 5-HT2B receptor were determined as previously described by [Luethi et al. (2018)]. In summary, HEK 293 cells stably transfected with the human 5-HT2B receptor were seeded in poly-D-lysine-coated 96 well plates at a density of 50,000 cells per well overnight at 37 °C in high glucose Dulbecco’s modified Eagle’s medium (DMEM; Invitrogen, Zug, Switzerland) supplemented with 10% fetal calf serum (non-dialyzed and heat-inactivated), 250 mg/L Geneticin, and 100 U/mL penicillin, and 100 μg/mL streptomycin (Gibco). The growth medium was removed by snap inversion and the cells were exposed to 100 μL calcium indication Fluo-4-solution (Molecular Probes, Eugene, OR, United States) for 45 min at 31 °C. Thereafter, the Fluo-4-solution was removed once again by snap inversion and was replaced with fresh 100 μL Fluo-4-solution. Next, the cells were washed with HBSS and 20 mM HEPES using the EMBLA cell washer and then exposed to the assay buffer (100 μL per well). Afterwards, 25 μL of test compounds diluted in assay buffer were added to the plate online. Dose–response curves were determined using nonlinear regression and EC50 values were calculated. The activation efficacy was calculated relative to the 5-HT activity (defined as 100%).

Another assay concerns the target T4, human 5-HT2A receptor (Homo sapiens, UniProt P28223).
T4 construct: expressed in transfected cells; host or cells: NIH-3T3 mouse embryonic fibroblasts
The assay is described as follows: Activation potency and efficacy at the 5-HT2A receptor (FLIPR calcium, NIH-3T3 cells). The class given is cell-based. Particulars: for Emax: NIH3T3, relative to 5-HT (100%), read-out: h5-HT2A activation efficacy Emax ± SD. Here is the method: The activation potency and efficacy at the 5-HT2A receptor were determined as previously described by [Luethi et al. (2018)]. In short, mouse embryonic fibroblasts (NIH-3T3 cells) stably transfected with the human 5-HT2A receptor were seeded in poly-D-lysine-coated 96 well plates at a density of 70,000 cells per 100 μL. Next, the cells were incubated in HEPES-Hank’s Balanced Salt Solution (HBSS) buffer (Gibco) for 1 h at 37 °C; the cells were then incubated with 100 μL of dye solution (fluorescence imaging plate reader [FLIPR] calcium 5 assay kit; Molecular Devices, Sunnyvale, CA, United States) per well for 1 h at 37 °C. The plate was then inserted into the FLIPR and 25 μL of the test compounds diluted in HEPES-HBSS buffer containing […] probenecid were added online. Increase of the fluorescence signal was measured and the activation potency (EC50) was calculated from the dose-response curves using nonlinear regression. The activation efficacy was calculated relative to 5-HT activity (defined as 100% activity).

Another assay concerns the target mTAAR1 (Mus musculus, UniProt Q923Y8). The experiment in a line: Radioligand binding, mouse TAAR1 ([3H]RO5166017).
For assay [1] the following is noted: cited from earlier work.
A further assay has as its target h5-HT2A receptor (Homo sapiens, UniProt P28223). The assay is described as follows: Radioligand binding, 5-HT2A receptor ([3H]ketanserin). Particulars: for Selectivity (binding ratio) 5-HT2A/5-HT1A: preference for 5-HT2A (Ki 5-HT1A divided by Ki 5-HT2A); for Selectivity (binding ratio) 5-HT2A/5-HT2C: preference for 5-HT2A (Ki 5-HT2C divided by Ki 5-HT2A).
Setting [2] is: anecdotal, ref Shulgin and Shulgin, 1991.

The structures appear in SMILES notation.

In general, Ki refers to the dissociation constant of the complex between target and ligand, obtained from inhibition or displacement. Low values mean tighter binding, high ones weaker binding. As usually defined, the EC50 is the concentration that produces a half-maximal response. What is called Emax is the maximal effect, on the per cent scale that the assay sets.

Sequence of h5-HT2A receptor (P28223 whole entry): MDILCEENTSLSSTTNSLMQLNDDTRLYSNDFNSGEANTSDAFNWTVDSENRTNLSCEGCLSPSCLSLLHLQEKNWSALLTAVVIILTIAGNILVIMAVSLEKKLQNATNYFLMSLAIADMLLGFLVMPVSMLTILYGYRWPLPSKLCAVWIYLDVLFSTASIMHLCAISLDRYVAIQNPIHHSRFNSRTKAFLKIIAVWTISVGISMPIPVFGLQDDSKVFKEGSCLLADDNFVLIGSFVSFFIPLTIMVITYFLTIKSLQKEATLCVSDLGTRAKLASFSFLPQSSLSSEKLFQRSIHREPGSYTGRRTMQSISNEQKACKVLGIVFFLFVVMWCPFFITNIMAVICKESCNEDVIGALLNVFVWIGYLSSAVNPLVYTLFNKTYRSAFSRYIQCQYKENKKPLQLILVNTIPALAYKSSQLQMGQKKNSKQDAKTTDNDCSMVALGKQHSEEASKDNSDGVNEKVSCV
T4 sequence (P28223 whole entry): as above
Sequence of mTAAR1 (Q923Y8 whole entry): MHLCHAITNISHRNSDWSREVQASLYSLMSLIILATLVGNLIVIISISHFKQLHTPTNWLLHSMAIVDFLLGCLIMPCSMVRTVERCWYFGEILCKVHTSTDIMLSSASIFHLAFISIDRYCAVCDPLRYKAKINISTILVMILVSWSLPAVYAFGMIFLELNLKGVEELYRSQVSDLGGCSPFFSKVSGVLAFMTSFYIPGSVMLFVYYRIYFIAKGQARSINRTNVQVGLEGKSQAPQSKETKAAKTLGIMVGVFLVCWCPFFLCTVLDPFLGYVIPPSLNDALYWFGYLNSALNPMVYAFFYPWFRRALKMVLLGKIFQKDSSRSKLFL

Regarding `COc1cc(OC)c(CC(C)N)c(OC)c1` (stereo not shown) [TMA-6, 2,4,6-trimethoxyamphetamine], the Ki is 3100 nM on hα2A adrenergic receptor, more than 5600 nM at h5-HT1A receptor, 850 ± 20 nM at mTAAR1 and 270 ± 18 nM at h5-HT2A receptor. Further, the concentration for a half-maximal effect (EC50) on human 5-HT2B receptor stood at 150 ± 20 nM; at human 5-HT2A receptor, 70 ± 32 nM. Besides, the values for the Emax at human 5-HT2B receptor and at human 5-HT2A receptor were 59 ± 3% and 61 ± 12%, respectively. In assay [1] (setting [2]), the “duration of effects in humans” value was 12 to 16 h. Also, the “psychoactive dose in humans” value in assay [1] (setting [2]) was 25 to 50 mg. At h5-HT2A receptor (TMA-6 vs TMA-2, Ψ-2C-O-16 vs 2C-O-16, Ψ-MALM vs MALM: higher affinity of the Ψ derivative), the “fold difference in 5-HT2A receptor affinity between Ψ derivative and its 2,4,5-trisubstituted counterpart” value is given as 2–5 fold. Further, the “Selectivity (binding ratio) 5-HT2A/5-HT1A” value at h5-HT2A receptor is more than 21. At h5-HT2A receptor, the “Selectivity (binding ratio) 5-HT2A/5-HT2C” value is 6.7.

As to `COc1cc(OC(F)F)cc(OC)c1CCN` [Ψ-2C-O-35, 4-(2,2-difluoromethoxy)-2,6-dimethoxyphenethylamine], the inhibitory constant (Ki) on hα2A adrenergic receptor worked out at 450 ± 70 nM; on h5-HT1A receptor, 4440 nM; at mTAAR1 it was 680 ± 120 nM; at h5-HT2A receptor, 72 ± 18 nM. In addition, the concentration giving a half-maximal response (EC50) on human 5-HT2B receptor turned out to be 300 ± 230 nM; on human 5-HT2A receptor it was 260 ± 200 nM. The values for the maximum response (Emax) at human 5-HT2B receptor and at human 5-HT2A receptor were 20 ± 13% and 16 ± 2%, respectively. Also, the “dose with some psychoactivity in humans” value in assay [1] (initial doses, anecdotal, ref Trachsel et al., 2013) was 17 mg. The “fold increase in 5-HT2A affinity over the 4-methoxy analog” value at h5-HT2A receptor (pairs Ψ-2C-O-1/Ψ-2C-O-35 and TMA-6/Ψ-DODFMO) is listed as 3–4 fold. On h5-HT2A receptor, the “Selectivity (binding ratio) 5-HT2A/5-HT2C” value is on record as 7.1.

`CCOc1cc(OC)c(CCN)c(OC)c1` [Ψ-2C-O-2, 2,6-dimethoxy-4-ethoxyphenethylamine]: the Ki on hα2A adrenergic receptor is 670 ± 60 nM; on h5-HT1A receptor it was 710 ± 30 nM; on mTAAR1 it was 230 ± 20 nM; at h5-HT2A receptor it was 400 ± 280 nM. Also, the EC50 on human 5-HT2B receptor was found to be 2100 nM; at human 5-HT2A receptor, 99 ± 8 nM. Further, the results for the maximal effect (Emax) at human 5-HT2B receptor and at human 5-HT2A receptor were 27 ± 8% and 53 ± 4%, respectively. In addition, on h5-HT2A receptor, the “Selectivity (binding ratio) 5-HT2A/5-HT1A” value worked out at 1.8. Moreover, the “Selectivity (binding ratio) 5-HT2A/5-HT2C” value at h5-HT2A receptor was found to be 3.8.

On hα2A adrenergic receptor, `C=C(C)COc1cc(OC)c(CC(C)N)c(OC)c1` (stereo not shown) [Ψ-MMALM, 2,6-dimethoxy-4-methallyloxyamphetamine] gave a Ki of 1400 nM. In addition, the inhibition constant Ki at h5-HT1A receptor is more than 5600 nM. In addition, on human 5-HT2B receptor, the EC50 was 93 ± 26 nM and the maximal response (Emax) was found to be 33 ± 11%. For the same compound, at human 5-HT2A receptor, the EC50 was 58 ± 28 nM, the “type of agonism at the 5-HT2A receptor” value is recorded as “partial agonists” and the maximal effect (Emax) stood at 68 ± 9%. In addition, the Ki at mTAAR1 is 250 ± 50 nM. For the same compound, at h5-HT2A receptor, the Ki stood at 52 ± 10 nM, the “Selectivity (binding ratio) 5-HT2A/5-HT1A” value is reported as more than 108 and the “Selectivity (binding ratio) 5-HT2A/5-HT2C” value was determined as 5.6.

Take `COc1cc(OC)c(CCN)c(OC)c1` [Ψ-2C-O-1, 2,4,6-trimethoxyphenethylamine]: the Ki at hα2A adrenergic receptor was 780 ± 70 nM; on h5-HT1A receptor, 960 ± 90 nM; on mTAAR1 it was 590 ± 20 nM; on h5-HT2A receptor it was 300 ± 40 nM. Moreover, the concentration for a half-maximal effect (EC50) at human 5-HT2B receptor amounted to 330 ± 250 nM; on human 5-HT2A receptor, 110 ± 20 nM. Besides, the values for the Emax at human 5-HT2B receptor and on human 5-HT2A receptor were 22 ± 8% and 84 ± 13%, respectively. The activity in humans result in assay [1] (doses up to 300 mg) is “inactive”. Further, the “Selectivity (binding ratio) 5-HT2A/5-HT1A” value at h5-HT2A receptor amounted to 3.2. Further, the “Selectivity (binding ratio) 5-HT2A/5-HT2C” value on h5-HT2A receptor amounted to 4.

Take `COc1cc(OCC(F)(F)F)cc(OC)c1CCN` [Ψ-2C-O-22, 2,6-dimethoxy-4-(2,2,2-trifluoroethoxy)phenethylamine]: the Ki turned out to be 1500 nM on hα2A adrenergic receptor, 2400 nM at h5-HT1A receptor, 210 ± 40 nM on mTAAR1 and 600 ± 60 nM on h5-HT2A receptor. For the same compound, the concentration for a half-maximal effect (EC50) on human 5-HT2B receptor is more than 10000 nM; at human 5-HT2A receptor, 3400 nM. Moreover, the Emax on human 5-HT2A receptor worked out at 41 ± 8%. For the same compound, the “Selectivity (binding ratio) 5-HT2A/5-HT1A” value at h5-HT2A receptor was 4. Also, the “Selectivity (binding ratio) 5-HT2A/5-HT2C” value at h5-HT2A receptor is recorded as 3.7.

As for `COc1cc(OCc2ccccc2)cc(OC)c1CC(C)N` (stereo not shown) [Ψ-MBnM, 4-benzyloxy-2,6-dimethoxyamphetamine], the inhibition constant Ki is 2000 nM on hα2A adrenergic receptor, more than 5600 nM on h5-HT1A receptor, 190 ± 10 nM at mTAAR1 and 21 ± 2 nM on h5-HT2A receptor. The EC50 was more than 10000 nM on human 5-HT2B receptor and 430 ± 150 nM at human 5-HT2A receptor. The maximal effect (Emax) on human 5-HT2A receptor worked out at 39 ± 6%. For the same compound, on h5-HT2A receptor, the “Selectivity (binding ratio) 5-HT2A/5-HT2C” value is recorded as 13.

The values are drawn from article PMC12675387, “Receptor interaction profiles of 4-alkoxy-2,6-dimethoxyphenethylamines (Ψ derivatives) and related amphetamines” (Frontiers in Pharmacology, 2025).
